The values below are quoted from earlier work in patent US8142802B2, “Insecticidal composition with enhanced synergistic activity” (priority 2003, dated 2012).

The conditions of this data set: at room temperature.

Some results are limits rather than exact numbers.

Turning to `COP(=O)(NC(C)=O)SC` (stereo not shown) [Acephate], the solubility in acetone was above 100 mg/mL, the “solubility in aromatic solvents” value is below 50 mg/mL, the solubility in ethanol is above 100 mg/mL and the solubility in water result is reported as “about 650 g/l”.
